From US12649749B2, “Preparation and application of tricyclic pyrimidinone compound and its composition” (NEUSCO BIOTECH LIMITED, priority 2020, dated 2026)

Columns and labels:
[1] = target: T1, Recombinant human Lp-PLA2 enzyme (Homo sapiens, UniProt Q13093); experiment: Recombinant human Lp-PLA2 (rhLp-PLA2) assay (PED6 assay); type: biochemical; settings: PED6 substrate; recombinant human Lp-PLA2 at 4 nM or 110 pM; 30 min pre-incubation; fluorescence ex 480/em 540; read-out: rhLp-PLA2 (pIC50) (converted)
T1 sequence (Q13093 22-441): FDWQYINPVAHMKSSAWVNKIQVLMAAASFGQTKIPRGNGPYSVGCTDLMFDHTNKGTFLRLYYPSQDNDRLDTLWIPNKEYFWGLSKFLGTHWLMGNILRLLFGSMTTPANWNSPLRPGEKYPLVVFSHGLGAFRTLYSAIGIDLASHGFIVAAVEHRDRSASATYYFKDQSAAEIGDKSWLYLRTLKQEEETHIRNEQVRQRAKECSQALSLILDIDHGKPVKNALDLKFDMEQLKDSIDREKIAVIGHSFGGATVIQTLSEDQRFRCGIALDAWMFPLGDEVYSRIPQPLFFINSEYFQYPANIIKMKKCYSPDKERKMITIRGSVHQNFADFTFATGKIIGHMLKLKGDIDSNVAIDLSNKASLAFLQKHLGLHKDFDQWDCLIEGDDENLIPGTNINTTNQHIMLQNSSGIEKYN
Source text: (1) Recombinant Human Lp-PLA2 (rhLp-PLA2) Assay (also Known as PED6 Assay)
PED6 is a fluorescently labeled phospholipid that can be purchased directly from Invitogene or Molecular Probes. There is a fluorescence-quenching p-nitrophenyl group on the Sn3 position, and a Bodipy fluorescein (FL) group on the sn2 position. Once it is cleaved by the Lp-PLA2 enzyme, the FL group is released, resulting in enhanced fluorescence.
Assay method: The compound to be tested (as shown in Table 1) was mixed with DMSO solution at a volume ratio of 1:3, diluted to prepare a source plate of a 384-well microplate. Then 0.01 μl of the compound was transferred via an ECHO liquid dispenser from the source plate to a 384-well Greiner 784076 plate, and 5 microliters of a buffer composed of 50 mM HEPES, pH 7.4, 150 mM NaCl, 1 mM CHAPS (the buffer solution contains Recombinant human Lp-PLA2 enzyme at a concentration of 4 nM or 110 pM) was added to each well on the plate. The plate was centrifuged at 500 rpm for 10 seconds. After 30 minutes of pre-incubation, 5 microliters of the above buffer solution was added to a 384-well Greiner784076 plate, and the plate was centrifuged at 500 rpm for 10 seconds.

[2] = target: T2, Lp-PLA2 enzyme in human plasma (Homo sapiens, UniProt Q13093); experiment: Human plasma Lp-PLA2 assay (Thio-PAF assay); type: biochemical; settings: mixed human plasma; 2-thio-PAF substrate with CPM; 30 min pre-incubation; fluorescence ex 380/em 485; read-out: Thio-PAF (pIC50) (converted)
T2 construct: from tissue; host or cells: pooled (mixed) human plasma
T2 sequence (Q13093 22-441): T1 sequence (Q13093 22-441)
Description: (2) Human Plasma Lp-PLA2 Assay (Also Known as Thio-PAF Assay) The human plasma assay was conducted using the sulphatide analog of PAF (phosphatidylcholine), which is hydrolyzed to produce phospholipids containing free sulfhydryl groups, subjected to Michael addition with CPM to generate fluorescence-enhancing maleimide. Continuous quantitative analysis of thiol could be conducted by detecting the fluorescence intensity. This assay can be used to detect the inhibitory activity of the Lp-PLA2 inhibitor on the Lp-PLA2 enzyme in human plasma. Assay Method: The compound to be tested (as shown in Table 2) was mixed with a DMSO solution in a volume ratio of (1:3), and diluted to prepare a source plate of a 384-well microplate. Then 0.01 μl of the compound was transferred via an ECHO liquid dispenser from the source plate to a 384-well Greiner 784076 low-volume plate, and 8 μl of pre-aliquoted and frozen mixed human plasma was added. The plate was centrifuged at 500 rpm for 10 seconds. After a 30 min pre-incubation, 2 μl of a substrate solution, and containing 2.5 mM 2-thio-PAF (a solution in ethanol), 32 μM CPM (a solution in DMSO) and a buffer of 3.2 mM N-ethylmaleimide (NEM) (a buffer solution consisting of 50 mM HEPES, pH 7.4, 150 mM NaCl, 1 mM CHAPS) was added by a BRAVO liquid handling station to a 384-well Greiner 784076 low-volume plate. After 2 min, the reaction was quenched with 5 μl of 5% trifluoroacetic acid. After the plate was incubated at room temperature for 40 min in a dark place, the fluorescence intensity was read at ex 380/em 485 with an Envision microplate reader, and the XL fitting model in Excel was used to perform the curve analysis and QC analysis to calculate pIC50.

Row | IC50 [1] | IC50 [2] | Compound
1 | 3.98 nM | 63.1 nM | O=c1nc(OCc2cc(F)c(F)c(F)c2)cc2n1CC[C@@H]1COCCN21 [Compound 1]
2 | 25.1 nM | 251 nM | O=c1nc(OCc2cccc(F)c2F)cc2n1CC[C@@H]1COCCN21 [Compound 2]
3 | 31.6 nM | 316 nM | O=c1nc(OCc2cc(F)c(F)cc2F)cc2n1CC[C@@H]1COCCN21 [Compound 3]
4 | 0.0794 nM | 6.31 nM | O=c1nc(OCc2cc(F)c(Oc3ccnc(C(F)(F)F)c3)c(F)c2)cc2n1CC[C@@H]1COCCN21 [Compound 4]
5 | 0.0631 nM | 3.16 nM | Cc1cc(Oc2c(F)cc(COc3cc4n(c(=O)n3)CC[C@@H]3COCCN43)cc2F)ccn1 [Compound 5]
6 | 0.1 nM | 7.94 nM | O=c1nc(OCc2cc(F)c(Oc3ccc(C(F)(F)F)nc3)c(F)c2)cc2n1CC[C@@H]1COCCN21 [Compound 6]
7 | 0.0631 nM | 7.94 nM | Cc1ccc(Oc2c(F)cc(COc3cc4n(c(=O)n3)CC[C@@H]3COCCN43)cc2F)cn1 [Compound 7]
8 | 0.316 nM | 15.8 nM | Cc1ncc(Oc2c(F)cc(COc3cc4n(c(=O)n3)CC[C@@H]3COCCN43)cc2F)cn1 [Compound 8]
9 | 0.0631 nM | 6.31 nM | O=c1nc(OCc2cc(F)c(Oc3cccc(C(F)(F)F)c3)c(F)c2)cc2n1CC[C@@H]1COCCN21 [Compound 9]
10 | 0.0794 nM | 10 nM | O=c1nc(OCc2cc(F)c(Oc3cccc(OC(F)(F)F)c3)c(F)c2)cc2n1CC[C@@H]1COCCN21 [Compound 10]
11 | 0.0794 nM | 7.94 nM | O=c1nc(OCc2cc(F)c(Oc3ccc(C(F)(F)F)cc3)c(F)c2)cc2n1CC[C@@H]1COCCN21 [Compound 11]
12 | 0.0501 nM | 6.31 nM | O=c1nc(OCc2cc(F)c(Oc3ccc(C(F)(F)F)c(Cl)c3)c(F)c2)cc2n1CC[C@@H]1COCCN21 [Compound 12]
13 | 6.31 nM | 79.4 nM | O=c1nc(OCc2cc(F)c(F)c(F)c2)cc2n1CC[C@H]1COCCN21 [Compound 13]
14 | 31.6 nM | 316 nM | O=c1nc(OCc2cccc(F)c2F)cc2n1CC[C@H]1COCCN21 [Compound 14]
15 | 0.126 nM | 12.6 nM | O=c1nc(OCc2cc(F)c(Oc3ccnc(C(F)(F)F)c3)c(F)c2)cc2n1CC[C@H]1COCCN21 [Compound 15]
16 | 0.0794 nM | 7.94 nM | Cc1cc(Oc2c(F)cc(COc3cc4n(c(=O)n3)CC[C@H]3COCCN43)cc2F)ccn1 [Compound 16]
17 | 0.126 nM | 12.6 nM | O=c1nc(OCc2cc(F)c(Oc3ccc(C(F)(F)F)nc3)c(F)c2)cc2n1CC[C@H]1COCCN21 [Compound 17]
18 | 0.1 nM | 10 nM | Cc1ccc(Oc2c(F)cc(COc3cc4n(c(=O)n3)CC[C@H]3COCCN43)cc2F)cn1 [Compound 18]
19 | 0.0794 nM | 7.94 nM | O=c1nc(OCc2cc(F)c(Oc3cccc(C(F)(F)F)c3)c(F)c2)cc2n1CC[C@H]1COCCN21 [Compound 19]
20 | 0.1 nM | 12.6 nM | O=c1nc(OCc2cc(F)c(Oc3ccc(C(F)(F)F)cc3)c(F)c2)cc2n1CC[C@H]1COCCN21 [Compound 20]
